Patent publication US20210268450A1, “COMPOSITION USEFUL FOR PRODUCTION OF ACIDIC GAS SEPARATION MEMBRANE” (SUMITOMO CHEMICAL COMPANY, LIMITED, priority 2018, published 2021)

Test: acid dissociation constant in a 25° C. aqueous solution (titration method)
Type: physicochemical
Settings: for acid dissociation constant in a 25° C. aqueous solution 1: first constant; for acid dissociation constant 2: second constant
From the text: This acid dissociation constant is a value as measured by a known titration method based on the definition of Bronsted (Shinpan Bunseki Kagaku Jikken, Nihon Bunseki Kagakukai Hokkaido Shibu ed., pp. 219 to 237).

Row | SMILES | acid dissociation constant in a 25° C. aqueous solution 1 | acid dissociation constant 2 | acid dissociation constant 3 (third constant) | acid dissociation constant in a 25° C. aqueous solution (single constant)
1 | Oc1cc(O)cc(O)c1 [Weakly acidic organic compound 2, phloroglucinol] | 8.0 | 9.2 | 14.0 | –
2 | Oc1cccc(O)c1 [Weakly acidic organic compound 1, resorcinol] | 9.3 | 9.8 | – | –
3 | CS(=O)(=O)Nc1ccccc1 [Weakly acidic organic compound 4, N-phenylmethanesulfonamide] | – | – | – | 12.9
4 | Oc1cccc(O)c1O [Weakly acidic organic compound 5, pyrogallol] | 9.0 | 11.6 | – | –
5 | Oc1ccccc1O [Weakly acidic organic compound 6, catechol] | 9.1 | 12.1 | – | –
